Assay [1] has as its target 5-hydroxytryptamine receptor 2A (Homo sapiens, UniProt P28223).
Assay [2] deals with T1, Prostaglandin G/H synthase 1 (Rattus norvegicus, UniProt Q63921).
T1 sequence (Q63921 whole entry): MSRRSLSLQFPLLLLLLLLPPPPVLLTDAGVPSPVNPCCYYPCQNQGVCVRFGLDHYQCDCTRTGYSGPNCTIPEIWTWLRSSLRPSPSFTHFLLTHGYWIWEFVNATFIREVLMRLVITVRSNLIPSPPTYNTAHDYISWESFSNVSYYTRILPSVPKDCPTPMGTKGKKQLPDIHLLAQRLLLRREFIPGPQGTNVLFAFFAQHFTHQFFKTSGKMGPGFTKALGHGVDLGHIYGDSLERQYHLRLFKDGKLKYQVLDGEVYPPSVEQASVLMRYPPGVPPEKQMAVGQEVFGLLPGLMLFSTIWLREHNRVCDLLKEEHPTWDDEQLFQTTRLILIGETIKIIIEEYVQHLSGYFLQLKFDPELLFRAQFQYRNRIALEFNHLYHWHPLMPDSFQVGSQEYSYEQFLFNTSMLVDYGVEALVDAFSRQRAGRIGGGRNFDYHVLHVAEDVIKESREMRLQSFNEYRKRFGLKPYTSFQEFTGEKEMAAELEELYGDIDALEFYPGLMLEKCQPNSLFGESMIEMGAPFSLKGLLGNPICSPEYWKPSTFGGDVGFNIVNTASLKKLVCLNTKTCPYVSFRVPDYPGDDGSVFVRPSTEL
The format is functional.

The target in assay [3] is T2, Nuclear receptor subfamily 1 group I member 3 (Homo sapiens, UniProt Q14994).
T2 sequence (Q14994 whole entry): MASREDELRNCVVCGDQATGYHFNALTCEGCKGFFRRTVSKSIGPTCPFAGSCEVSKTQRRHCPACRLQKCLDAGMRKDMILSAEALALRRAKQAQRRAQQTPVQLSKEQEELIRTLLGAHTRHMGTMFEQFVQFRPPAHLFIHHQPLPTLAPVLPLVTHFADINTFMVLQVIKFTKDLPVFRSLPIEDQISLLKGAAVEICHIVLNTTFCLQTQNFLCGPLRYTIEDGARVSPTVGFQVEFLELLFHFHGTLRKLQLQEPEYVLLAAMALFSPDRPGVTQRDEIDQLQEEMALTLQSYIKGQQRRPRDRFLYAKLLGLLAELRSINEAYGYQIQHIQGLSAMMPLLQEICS
The format is functional.

The target in assay [4] is T3, Alpha-1A adrenergic receptor (Homo sapiens, UniProt P35348).
T3 sequence (P35348 whole entry): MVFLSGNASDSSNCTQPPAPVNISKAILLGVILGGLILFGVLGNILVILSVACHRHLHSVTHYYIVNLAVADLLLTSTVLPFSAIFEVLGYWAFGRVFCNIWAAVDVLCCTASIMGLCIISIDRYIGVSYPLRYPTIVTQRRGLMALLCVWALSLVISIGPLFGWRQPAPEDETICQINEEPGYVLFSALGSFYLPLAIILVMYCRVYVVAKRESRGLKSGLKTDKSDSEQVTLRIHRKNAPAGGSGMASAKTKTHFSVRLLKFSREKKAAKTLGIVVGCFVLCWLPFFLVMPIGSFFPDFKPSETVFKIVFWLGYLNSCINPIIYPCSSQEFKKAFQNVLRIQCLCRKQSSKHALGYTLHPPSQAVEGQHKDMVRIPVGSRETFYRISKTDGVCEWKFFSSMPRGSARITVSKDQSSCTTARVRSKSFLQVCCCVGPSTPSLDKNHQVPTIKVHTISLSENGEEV

The target of assay [5] is T4, Muscarinic acetylcholine receptor M5 (Homo sapiens, UniProt P08912).
T4 sequence (P08912 whole entry): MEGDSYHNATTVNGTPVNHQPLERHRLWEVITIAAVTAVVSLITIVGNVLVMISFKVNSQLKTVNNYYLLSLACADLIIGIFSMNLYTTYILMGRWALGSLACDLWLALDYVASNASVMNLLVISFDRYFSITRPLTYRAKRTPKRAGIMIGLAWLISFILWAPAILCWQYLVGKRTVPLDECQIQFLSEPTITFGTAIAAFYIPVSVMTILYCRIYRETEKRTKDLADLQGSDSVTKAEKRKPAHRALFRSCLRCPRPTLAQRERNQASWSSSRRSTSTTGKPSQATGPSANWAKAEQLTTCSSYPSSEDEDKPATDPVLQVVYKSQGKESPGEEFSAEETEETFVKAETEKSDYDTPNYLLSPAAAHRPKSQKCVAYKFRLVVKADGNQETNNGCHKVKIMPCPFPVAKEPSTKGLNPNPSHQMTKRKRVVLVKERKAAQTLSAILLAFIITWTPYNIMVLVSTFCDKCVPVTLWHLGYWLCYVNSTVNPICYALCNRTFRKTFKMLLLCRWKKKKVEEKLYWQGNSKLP

The target of assay [6] is 5-hydroxytryptamine receptor 5A (Homo sapiens, UniProt P47898).
Chain of 5-hydroxytryptamine receptor 5A (P47898 whole entry): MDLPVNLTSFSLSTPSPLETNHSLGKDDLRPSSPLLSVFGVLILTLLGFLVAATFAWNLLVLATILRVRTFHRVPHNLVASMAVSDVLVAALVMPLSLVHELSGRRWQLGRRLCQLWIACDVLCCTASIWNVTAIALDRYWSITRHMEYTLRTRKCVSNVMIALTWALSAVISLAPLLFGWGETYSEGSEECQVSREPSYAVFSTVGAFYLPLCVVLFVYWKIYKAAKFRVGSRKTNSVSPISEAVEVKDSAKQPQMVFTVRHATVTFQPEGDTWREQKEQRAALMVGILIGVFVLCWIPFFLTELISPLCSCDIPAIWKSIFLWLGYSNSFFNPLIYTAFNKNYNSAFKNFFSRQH
In assay [7] the target is T5, Peroxisome proliferator-activated receptor alpha (Homo sapiens, UniProt Q07869).
T5 sequence (Q07869 whole entry): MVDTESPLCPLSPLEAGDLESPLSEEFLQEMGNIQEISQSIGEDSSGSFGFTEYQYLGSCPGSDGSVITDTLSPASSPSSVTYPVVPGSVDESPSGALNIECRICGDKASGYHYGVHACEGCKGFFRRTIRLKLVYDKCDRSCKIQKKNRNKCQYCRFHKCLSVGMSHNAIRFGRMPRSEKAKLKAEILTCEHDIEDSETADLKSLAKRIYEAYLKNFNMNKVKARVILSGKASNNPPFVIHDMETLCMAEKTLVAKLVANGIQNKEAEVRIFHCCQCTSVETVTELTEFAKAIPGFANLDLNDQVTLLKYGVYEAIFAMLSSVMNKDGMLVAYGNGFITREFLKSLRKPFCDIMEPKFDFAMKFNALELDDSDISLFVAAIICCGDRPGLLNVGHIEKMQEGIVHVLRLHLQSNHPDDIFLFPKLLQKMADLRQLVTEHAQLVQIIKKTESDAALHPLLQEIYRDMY
The format is functional.

Assay [8] has as its target T5, Peroxisome proliferator-activated receptor alpha. The format is functional. The source holds these as a separate data set.
Further: assay procedure not described here.

Chain of 5-hydroxytryptamine receptor 2A (P28223 whole entry): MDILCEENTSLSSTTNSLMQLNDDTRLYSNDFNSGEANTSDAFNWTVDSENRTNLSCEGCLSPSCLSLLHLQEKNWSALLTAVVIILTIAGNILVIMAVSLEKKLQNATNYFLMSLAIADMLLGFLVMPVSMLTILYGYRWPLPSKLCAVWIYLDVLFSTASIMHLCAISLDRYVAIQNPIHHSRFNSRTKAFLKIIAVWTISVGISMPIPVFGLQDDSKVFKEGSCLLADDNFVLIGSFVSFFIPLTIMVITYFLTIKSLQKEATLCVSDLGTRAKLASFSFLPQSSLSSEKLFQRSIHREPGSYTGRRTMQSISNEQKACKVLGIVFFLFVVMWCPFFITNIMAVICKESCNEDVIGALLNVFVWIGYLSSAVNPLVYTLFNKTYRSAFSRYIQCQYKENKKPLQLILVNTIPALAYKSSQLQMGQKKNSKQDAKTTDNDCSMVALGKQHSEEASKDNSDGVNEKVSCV

The molecule `C=CC1=C(C(=O)O)N2C(=O)[C@@H](NC(=O)/C(=N\O)c3csc(N)n3)[C@H]2SC1` had an AC50 in assay [1] greater than 10 µM.

Turning to `CCN(CC)CCn1c(=O)c(Cc2ccc(OC)cc2)nc2ccccc21` [CAROVERINE], the concentration at half-maximal activity (AC50) in assay [2] amounted to 15.9 µM.

In assay [1], `C[C@]12CCC(=O)C=C1CC[C@H]1[C@@H]3CC[C@](O)(C(=O)CO)[C@@]3(C)C[C@H](O)[C@@]12F` [FLUDROCORTISONE] gave an AC50 greater than 10 µM.

`Cc1c(C)c2c(c(C)c1O)CCC(C)(COc1ccc(CC3SC(=O)NC3=O)cc1)O2` (configuration not stated) [TROGLITAZONE] showed an AC50 in assay [3] of 3.4 µM.

In assay [2], `CN(C)CCC=C1c2ccccc2CCc2ccccc21` [AMITRIPTYLINE] yielded an AC50 greater than 30 µM.

Consider `CC(=O)Oc1ccccc1C(=O)O` [ASPIRIN], for which the AC50 in assay [4] was greater than 10 µM.

Regarding `CCOC(=O)[C@H](CCc1ccccc1)N[C@@H](C)C(=O)N1Cc2ccccc2C[C@H]1C(=O)O`, the half-maximal activity concentration (AC50) in assay [4], in assay [5] and in assay [6] was greater than 10 µM in each case.

In the case of `OCCOCCN1CCN(C(c2ccccc2)c2ccc(Cl)cc2)CC1` (configuration not stated) [HYDROXYZINE], the results for the AC50 in assay [4], in assay [1] and in assay [6] were 0.546 µM, 0.146 µM and 0.28 µM, respectively.

`CC(=O)SCC(Cc1ccccc1)C(=O)NCC(=O)OCc1ccccc1` (configuration not stated) [RACECADOTRIL]: the AC50 is greater than 30 µM in assay [7], 29 µM in assay [8] and greater than 10 µM in assay [1].

For the molecule `CCOc1ccccc1OCCN[C@H](C)Cc1ccc(OC)c(S(N)(=O)=O)c1` [TAMSULOSIN], the activity in assay [1] was half-maximal at 14.4 µM (AC50).

As for `CC(C)/N=c1\cc2n(-c3ccc(Cl)cc3)c3ccccc3nc-2cc1Nc1ccc(Cl)cc1` [CLOFAZIMINE], the concentration at half-maximal activity (AC50) in assay [7], in assay [8] and in assay [3] was greater than 30 µM each time.

For the molecule `NCC1(CC(=O)O)CCCCC1` [GABAPENTIN], the concentration at half-maximal activity (AC50) in assay [4] and in assay [5] was greater than 10 µM in each case.

Turning to `Nc1nnc(-c2cccc(Cl)c2Cl)c(N)n1` [LAMOTRIGINE], the activity in assay [4] was half-maximal at 11.1 µM (AC50).
